Patent US9695219B2, “Polypeptide having antibacterial activity and angiogenesis-inducing activity and wound-healing drug containing said polypeptide” (priority 2009, dated 2017)
Values after ≈ are worked out from the molar mass of the structure shown. Like-named read-outs stand apart in the source and are kept apart here. Where no end group is shown, it is not given here.

What was measured:
[1] = test system: Escherichia coli ATCC 25922; experiment: Antibacterial activity, ATP assay (BacTiter-Glo); type: cell-based
Description: (§1) The antibacterial activity of each of SR-08 and SR-07 polypeptides was measured using an ATP assay method. That is, using BacTiter-Glo Microbial Cell Viability Assay kit available from PROMEGA, the antibacterial activity of the peptides was evaluated from the viability of bacteria. In other words, ATP amount in viable bacteria in cases where the concentration of the peptides was 10 μg/mL was measured using a microtiter plate or test tubes. As controls, tobramycin (TOB), oxacillin (OX) and meropenem (MEPM) were used at the concentrations as respectively shown in Table 6 below.
(§2) With respect to the strains, Escherichia coli: ATCC 25922 (Escherichia coli ATCC 25922), Pseudomonas aeruginosa: ATCC 27853 (Pseudomonas aeruginosa ATCC 27853), Staphylococcus aureus: ATCC29213 (Staphylococcus aureus ATCC29213), Klebsiella pneumoniae: JCM 1662 (Klebsiella pneumoniae JCM 1662), enterobacteria (1): JCM 1232 (Enterobacter cloacae JCM 1232), and enterobacteria (2): JCM 1235 (Enterobacter aerogenes JCM 1235), were used.
(§3) The bacteria were cultured in media for 3 to 4 hours, and thereafter absorbances at A600 were measured. Bacterial suspensions were diluted with Mueller-Hinton broth (MHB) according to McFarland #0.5. Each strain was added so as to attain about 0.5-1×10^5 CFU/mL (final concentration) in terms of Escherichia coli. Each peptide was prepared and added to a microplate or test tubes so as to attain a final concentration of 10 μg/mL, and the bacterial suspension was added thereto. The plate was incubated at 37° C. for 3 hours, and the amount of ATP in the culture media was measured. Relative values were calculated by comparison with the negative control, and these values were regarded as the viability.

[2] = test system: Klebsiella pneumoniae JCM 1662; experiment: Antibacterial activity, ATP assay (BacTiter-Glo); type: cell-based
Description: as §1, §2, §3

[3] = test system: Enterobacter cloacae JCM 1232; experiment: Antibacterial activity, ATP assay (BacTiter-Glo); type: cell-based
Description: as §1, §2, §3

[4] = test system: Pseudomonas aeruginosa (clinical strain 9); experiment: MIC measurement, broth microdilution; type: cell-based; conditions: Pseudomonas aeruginosa; 37° C. for 20 hours; tested twice, first/second value where not matched
MRSA (clinical strain 2) = experiment: microbe, parasite or virus in culture; type: cell-based, Staphylococcus aureus; conditions: 37° C. for 20 hours, tested twice, first/second value where not matched
Description: (§4) Further, with respect to not only the above-described strains but also various other strains, the “minimum inhibitory concentration (MIC)” was measured as follows. MIC is the lowest concentration of an agent that may inhibit the growth of a bacterium. MIC is used as a parameter for the efficacy of an antibacterial agent, for the strength of bacterial sensitivity, or the like. The bacteria can grow (proliferate) when the concentration is not higher than MIC, and cannot grow when the concentration is higher than MIC. Its measurement is carried out according to a method defined as a standard method by Japanese Society of Chemotherapy or CLINICAL AND LABORATORY […] (CLSI), but, in this Example, its measurement was carried out by a broth microdilution method in accordance with “M100-S17/M7-A7” (Performance Standards for Antimicrobial Susceptibility Testing; Seventeenth Informational Supplement, Vol. 27 No. 1) published by CLSI on January, 2007. That is, sensitivity test of agents was carried out using a microtiter plate or test tubes.
(§5) The bacteria were cultured in liquid media for 4 to 6 hours, and thereafter absorbances at A600 were measured. Bacterial suspensions were diluted with Mueller-Hinton broth (MHB) according to McFarland #0.5. Each strain was added so as to attain about 10^5 CFU/ml (final concentration). Each peptide was prepared to an optional concentration, and the solutions were serially diluted from the concentration. The polypeptide at each concentration stage was added to a microplate or test tubes, and the bacterial suspension was added thereto. Chloramphenicol, amphotericin B, ciprofloxacin, meropenem (MEPM), ciprofloxacin (CPFX), tobramycin (TOB) and oxacillin (OX) were used as positive controls. The plate was incubated at 37° C. for 20 hours, and the lowest concentration where bacterial growth was inhibited was regarded as the minimum inhibitory concentration.

MSSA (clinical strain 2) = experiment: microbe, parasite or virus in culture; type: cell-based, Staphylococcus aureus; conditions: 37° C. for 20 hours, tested twice, first/second value where not matched
Description: as §4, §5

MSSA (clinical strain 1) = experiment: microbe, parasite or virus in culture; type: cell-based, Staphylococcus aureus; conditions: Staphylococcus aureus, MSSA; 37° C. for 20 hours; tested twice, first/second value where not matched
Description: as §4, §5

[5] = test system: Pseudomonas aeruginosa (clinical strain 1); experiment: microbe, parasite or virus in culture; type: cell-based; conditions: Pseudomonas aeruginosa; 37° C. for 20 hours; tested twice, first/second value where not matched
[6] = test system: Pseudomonas aeruginosa (clinical strain 12); experiment: MIC measurement, broth microdilution; type: cell-based; conditions: Pseudomonas aeruginosa; 37° C. for 20 hours; tested twice, first/second value where not matched
[7] = test system: Staphylococcus epidermidis; experiment: MIC measurement, broth microdilution; type: cell-based; conditions: Staphylococcus epidermidis; 37° C. for 20 hours; tested twice, first/second value where not matched
Description: as §4, §5

[8] = test system: Pseudomonas aeruginosa ATCC 27853; experiment: Antibacterial activity, ATP assay (BacTiter-Glo); type: cell-based
Description: (§6) The antibacterial activity of the polypeptides was measured using an ATP assay method. Using BacTiter-Glo Microbial Cell Viability Assay kit available from PROMEGA, the antibacterial activity of the peptides was evaluated from the viability of bacteria. […] With respect to the strains, Staphylococcus aureus ATCC29213 (S. aureus ATCC29213) as Gram-positive bacteria, or, alternatively, Pseudomonas aeruginosa (P. aeruginosa ATCC27853) as Gram-negative bacteria, was used. The bacteria were cultured in media for 3 to 4 hours, and thereafter absorbances at A600 were measured. Bacterial suspensions were diluted with Mueller-Hinton broth (MHB) according to McFarland #0.5. […] A solution to which the peptides were not added was considered as a negative control, and a solution to which tobramycin (TOB) was added was considered as a positive control. The plate was incubated at 37° C. for 3 hours, and the amount of ATP in the culture media was measured. Relative values were calculated by comparison with the negative control, and these values were regarded as the viability. The antibacterial activity of each of SR-08 and SR-07 polypeptides was measured using an ATP assay method. That is, using BacTiter-Glo Microbial Cell Viability Assay kit available from PROMEGA, the antibacterial activity of the peptides was evaluated from the viability of bacteria. […] As controls, tobramycin (TOB), oxacillin (OX) and meropenem (MEPM) were used at the concentrations as respectively shown in Table 6 below. With respect to the strains, Escherichia coli: ATCC 25922 (Escherichia coli ATCC 25922), Pseudomonas aeruginosa: ATCC 27853 (Pseudomonas aeruginosa ATCC 27853), Staphylococcus aureus: ATCC29213 (Staphylococcus aureus ATCC29213), Klebsiella pneumoniae: JCM 1662 (Klebsiella pneumoniae JCM 1662), enterobacteria (1): […] JCM 1235 (Enterobacter aerogenes JCM 1235), were used. The bacteria were cultured in media for 3 to 4 hours, and thereafter absorbances at A600 were measured. Bacterial suspensions were diluted with Mueller-Hinton broth (MHB) according to McFarland #0.5. […] The plate was incubated at 37° C. for 3 hours, and the amount of ATP in the culture media was measured. Relative values were calculated by comparison with the negative control, and these values were regarded as the viability.

[9] = test system: Staphylococcus aureus ATCC29213; experiment: Antibacterial activity, ATP assay (BacTiter-Glo); type: cell-based
Description: as §6

MRSA (clinical strain 1) = experiment: microbe, parasite or virus in culture; type: cell-based; conditions: Staphylococcus aureus, 37° C. for 20 hours, tested twice, first/second value where not matched
Description: as §4, §5

[10] = test system: Pseudomonas aeruginosa (clinical strain 6); experiment: MIC measurement, broth microdilution; type: cell-based; conditions: Pseudomonas aeruginosa; 37° C. for 20 hours; tested twice, first/second value where not matched
[11] = test system: Pseudomonas aeruginosa (clinical strain 8); experiment: MIC measurement, broth microdilution; type: cell-based; conditions: Pseudomonas aeruginosa; 37° C. for 20 hours; tested twice, first/second value where not matched
[12] = test system: Enterobacter aerogenes JCM 1235; experiment: Antibacterial activity, ATP assay (BacTiter-Glo); type: cell-based
Description: as §1, §2, §3

[13] = test system: human vascular endothelial cells and fibroblast cells; type: cell-based; conditions: polypeptide 10 μg/mL, Day 11 of culture
Description: Using AG30-5C as a positive control, the angiogenesis-inducing activity of SR-1 and SR-2 was measured. More concretely, using an angiogenesis kit (Angiogenesis Kit, KZ-1000, KURABO […] LTD.), the ability of the polypeptides to form lumina was evaluated. As a negative control, polypeptide-free group (Control) was used.
Each polypeptide was added to a special medium for angiogenesis (KURABO […] LTD., KZ-1500) such that the concentration thereof was 10 μg/mL. Cells were cultured at 37° C. under 5% CO2 in a 24-well plate using the special media to which the polypeptide was added. The medium was replaced with a medium containing the same polypeptide on Day 4, Day 7 and Day 9 of culture. On Day 11 from the beginning of the culture, the medium was removed and staining was performed using a kit for staining lumina (for CD31 antibody staining) according to the following procedure.
The primary antibody (mouse anti-human CD31 antibody) was 4000-fold diluted with a blocking solution (Dulbecco's phosphate buffered saline (PBS(−)) containing 1% BSA). To each well, 0.5 mL of this primary antibody solution was added, and the plate was incubated for 60 minutes at 37° C. After the completion of the incubation, each well was washed totally 3 times with 1 mL of the blocking solution.
Then, 0.5 mL of a secondary antibody solution (goat anti-mouse IgG/alkaline phosphatase conjugate) 500-fold diluted with the blocking solution was added to each well. The plate was incubated for 60 minutes at 37° C., and thereafter each well was washed 3 times with 1 mL of distilled water. During that period, 2 tablets of BCIP/NBT were dissolved into distilled water, and the obtained solution was filtered through a filter having a pore size of 0.2 μm to prepare a substrate solution. To each well, 0.5 mL of the prepared BCIP/NBT substrate solution was added, and the plate was incubated at 37° C. until the lumina turned to deep purple (typically for 5-10 minutes). After the completion of the incubation, each well was washed 3 times with 1 mL of distilled water. After washing, the washing solution was removed by aspiration, and the plate was left to stand and dry naturally. After drying, photographs of each well were taken under a microscope.
Each of the obtained images was quantified using an angiogenesis quantification software. Computer analysis was carried out on various parameters. And, on the basis of its scale, the lengths of formed lumina observed in each visual field were measured, and the effect of adding the polypeptides compared with Control was evaluated.

[14] = Table 7, mean values, peptides 10 μg/mL, TOB 1.0, OX 1.0, MEPM 0.5 μg/mL, 37° C. 3 hours, relative to negative control
[15] = Table 7, mean values, peptides 10 μg/mL, TOB 4.0, OX 4.0, MEPM 0.5 μg/mL, 37° C. 3 hours, relative to negative control
[16] = Table 5, peptides 10 μg/mL, 37° C. for 3 hours, ATP amount relative to negative control

C[C@@H](O)[C@H]1C(=O)N2C(C(=O)O)=C(S[C@@H]3CN[C@H](C(=O)N(C)C)C3)[C@H](C)[C@H]12 [MEPM, meropenem]
viability at 0.5 µg/mL ([1]; Escherichia coli, ATCC25922, 3 h, read-out: Viability, Escherichia coli): 12.4%
viability at 0.5 µg/mL ([2]; Klebsiella pneumoniae, JCM1662, 3 h, read-out: Viability, Klebsiella pneumoniae): 9.2%
viability at 0.5 µg/mL ([3]; Enterobacter cloacae, JCM1232, 3 h, read-out: Viability, Enterobacteria (1)): 3.8%
MIC [4]: < 4 µg/mL
MIC, MRSA (clinical strain 2) (MRSA (clinical strain 2)): 8/16
MIC, MSSA (clinical strain 2) (MSSA (clinical strain 2)): 4/8
MIC (MSSA (clinical strain 1)): < 4 µg/mL
MIC [5]: < 4 µg/mL
MIC [6]: < 4 µg/mL
MIC [7]: 0.03 to 0.12 µg/mL (≈ 0.0782 to 0.313 µM)
viability at 0.5 µg/mL ([8]; Pseudomonas aeruginosa, ATCC27853, 3 h, read-out: Viability, Pseudomonas aeruginosa): 19.3%
viability at 0.5 µg/mL ([9]; Staphylococcus aureus, ATCC29213, 3 h, read-out: Viability, Staphylococcus aureus): 89.8%
MIC (MRSA (clinical strain 1)): < 4 µg/mL
MIC [10]: 8 µg/mL (≈ 20.9 µM)
MIC [11]: < 4 µg/mL
viability at 0.5 µg/mL ([12]; Klebsiella aerogenes, JCM1235, 3 h, read-out: Viability, Enterobacteria (2)): 1.7%

NC[C@H]1O[C@H](O[C@H]2[C@H](O)[C@@H](O[C@H]3O[C@H](CO)[C@@H](O)[C@H](N)[C@H]3O)[C@H](N)C[C@@H]2N)[C@H](N)C[C@@H]1O [TOB, tobramycin]
Viability, Escherichia coli [1, 14]: 4.1
Viability, Klebsiella pneumoniae [2, 15]: 4.6
Viability, Enterobacteria (1) [3, 15]: 2.9
MIC [4]: < 4 µg/mL
MIC (MRSA (clinical strain 2); Staphylococcus aureus, MRSA): > 16 µg/mL
MIC (MSSA (clinical strain 2); Staphylococcus aureus, MSSA): < 4 µg/mL
MIC (MSSA (clinical strain 1)): < 4 µg/mL
MIC [5]: > 16 µg/mL
MIC [6]: < 4 µg/mL
MIC [7]: 0.12 to 1 µg/mL (≈ 0.257 to 2.14 µM)
Viability (%) Pseudomonas aeruginosa [8, 16]: 1.8%
Viability, Pseudomonas aeruginosa [8, 14]: 1.5
Viability (%) Staphylococcus aureus [9, 16]: 3.5%
Viability, Staphylococcus aureus ([9]; Table 7, mean values, peptides 10 μg/mL, TOB 1.0, OX 0.125, MEPM 0.5 μg/mL, 37° C. 3 hours, relative to negative control): 3.4
MIC (MRSA (clinical strain 1)): > 16 µg/mL
MIC [10]: < 4 µg/mL
MIC [11]: < 4 µg/mL
Viability, Enterobacteria (2) [12, 15]: 0.7

ARLDVASEFRKKWNKWALSR-amide (ARLDVASEFRKKWNKWALSR-NH2; listed as Homo sapiens) [PAMP]
The Length of Lumina (Percentage when taking Control as 100) ([13]; Table 4): 124.6%

ELRFLHRLKRRLRKRLKRKLR-NH2 [SR-2]
The Length of Lumina (Percentage when taking Control as 100) ([13]; Table 3): 124.6%

MLKLIFLHRLKRMRKRLKRK [SR-1]
The Length of Lumina (Percentage when taking Control as 100) ([13]; Table 3): 124.3%

MLKLIFLHRLKRMRKRLKRKLRFWHRKRYK [AG30-5C]
The Length of Lumina (Percentage when taking Control as 100) ([13]; Table 3): 119.1%
The Length of Lumina (Percentage when taking Control as 100) ([13]; Table 4): 165.7%
